# Experimental data: the supplement of paper PMC11061612
# How the values were obtained:
# [1] = system: ATN-1 (T-Lymphoblastic Leukemia); assay: Bliss excess, mean over the matrix (fraction); higher = more synergy
# How it was run: (§1)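 Cell lines in DMEM/F12 or RPMI with 10% FBS were plated in 1536-well plates, held 24 hours at 37°C, 5% CO2, then given two-drug dose matrices for 72 hours (DMSO typically 0.2%). Viability was read by CellTiter-Glo 2.0 luminescence and scaled as inhibition from 0 (vehicle wells) to 1 (blank wells). Combination Emax is the second-highest inhibition in the matrix; Bliss excess is observed combination effect minus expected EA + EB − EA·EB, EA and EB being single-agent effects.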
# HT-144 (Melanoma) = assay: as above
# How it was run: as §1
# [2] = system: OCI-M1 (Acute Myeloid Leukemia); assay: as above
# How it was run: as §1
# [3] = system: IGROV-1 (Ovarian Carcinoma); assay: combination Emax (second highest fraction inhibited in the dose matrix, 72 h); higher = more inhibition; extreme values may be limits of the assay
# How it was run: as §1
# [4] = system: NCI-H2170 (Squamous Cell Lung Carcinoma); assay: as above
# How it was run: as §1
# [5] = system: GRANTA-519 (B-Cell Non-Hodgkin's Lymphoma); assay: as above
# How it was run: as §1
# [6] = system: HT-1197 (Bladder Carcinoma); assay: as above
# How it was run: as §1
# [7] = system: SUP-HD1 (Hodgkin's Lymphoma); assay: as above
# How it was run: as §1
# [8] = system: HT-3 (Cervical Carcinoma); assay: as above
# How it was run: as §1
# MG-63 (Osteosarcoma) = assay: Bliss excess, mean over the matrix (fraction); higher = more synergy
# How it was run: as §1
# [9] = system: NCI-H2023 (Non-Small Cell Lung Carcinoma); assay: as above
# How it was run: as §1
# NCI-H2452 (Mesothelioma) = assay: as above
# How it was run: as §1
# [10] = system: NTERA-2-cl-D1 (Other Solid Carcinomas); assay: as above
# How it was run: as §1
# [11] = system: MDA-MB-175-VII (Breast Carcinoma); assay: as above
# How it was run: as §1
# [12] = system: MRK-nu-1 (Breast Carcinoma); assay: combination Emax (second highest fraction inhibited in the dose matrix, 72 h); higher = more inhibition; extreme values may be limits of the assay
# How it was run: as §1
# [13] = system: L-363 (Plasma Cell Myeloma); assay: as above
# How it was run: as §1
# [14] = system: NCI-H1435 (Non-Small Cell Lung Carcinoma); assay: as above
# How it was run: as §1
# GCIY (Gastric Carcinoma) = assay: as above
# How it was run: as §1
# [15] = system: MDA-MB-175-VII (Breast Carcinoma); assay: as above
# How it was run: as §1
# [16] = system: KNS-62 (Squamous Cell Lung Carcinoma); assay: as above
# How it was run: as §1
# 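Throughout, for Bliss excess, mean over the matrix: after 72 h of two-drug dosing.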
Compound,Bliss excess [1],Bliss excess (HT-144 (Melanoma)),Bliss excess [2],combination Emax [3],combination Emax [4],combination Emax [5],combination Emax [6],combination Emax [7],combination Emax [8],Bliss excess (MG-63 (Osteosarcoma)),Bliss excess [9],Bliss excess (NCI-H2452 (Mesothelioma)),Bliss excess [10],Bliss excess [11],combination Emax [12],combination Emax [13],combination Emax [14],combination Emax (GCIY (Gastric Carcinoma)),combination Emax [15],combination Emax [16]
"COc1nnc2ccc(N3CCC(c4ccc(OCCN5CCN(C)C(=O)[C@H]5C)cc4)CC3)nn12 [AZD5153] + CN(CC[C@H](CSC1=CC=CC=C1)NC2=C(C=C(C=C2)S(=O)(=O)NC(=O)C3=CC=C(C=C3)N4CCC(CC4)[C@H](C5=CC=CC=C5C6=CC=C(C=C6)Cl)O)S(=O)(=O)C(F)(F)F)CCO [AZD4320] (first compound max 1 µM, 7x7, partner max 1 µM)",-0.0165,0.0439,-0.0095,0.608,0.838,0.986,0.845,0.988,0.3,–,–,–,–,–,–,–,–,–,–,–
"Cc1c2c(nn1C)CSCc1cc(n(C)n1)CSc1cc(c3ccccc3c1)OCCCc1c(C(=O)O)n(C)c3c-2c(Cl)ccc13 [AZD5991] + CC1(C)CCC(CN2CCN(c3ccc(C(=O)NS(=O)(=O)c4ccc(NCC5CCOCC5)c([N+](=O)[O-])c4)c(Oc4cnc5[nH]ccc5c4)c3)CC2)=C(c2ccc(Cl)cc2)C1 [Venetoclax] (first compound max 1 µM, 7x7, partner max 1 µM)",0.0429,0.005,-0.0076,0.469,0.237,0.472,0.148,0.959,0.597,0.0034,-0.0387,-0.0471,0.0217,-0.0306,1,1,0.206,0.343,0.152,–
"Cc1c2c(nn1C)CSCc1cc(n(C)n1)CSc1cc(c3ccccc3c1)OCCCc1c(C(=O)O)n(C)c3c-2c(Cl)ccc13 [AZD5991] + Cn1cnc2c(F)c(Nc3ccc(Br)cc3Cl)c(C(=O)NOCCO)cc21 [Selumetinib] (first compound max 1 µM, 7x7, partner max 3 µM)",-0.0672,0.01,0.03,0.734,0.184,0.106,0.321,0.593,0.789,-0.042,0.0293,0.0633,0.0115,-0.0217,1,1,0.26,0.465,–,0.339
"C=CCn1c(=O)c2cnc(Nc3ccc(N4CCN(C)CC4)cc3)nc2n1-c1cccc(C(C)(C)O)n1 [AZD1775] + C[C@@H]1COCCN1C2=NC(=NC(=C2)C3(CC3)[S@](=N)(=O)C)C4=C5C=CNC5=NC=C4 [AZD6738] (first compound max 1 µM, partner max 10 µM)",-0.0076,-0.0482,0.0327,0.827,–,0.826,0.592,0.887,0.832,0.0271,-0.0674,-0.0518,0.0123,-0.0184,0.802,0.977,0.398,0.947,0.405,0.565
"CC(=O)c1c(C)c2cnc(Nc3ccc(N4CCNCC4)cn3)nc2n(C2CCCC2)c1=O [Palbociclib] + CN(CC[C@H](CSC1=CC=CC=C1)NC2=C(C=C(C=C2)S(=O)(=O)NC(=O)C3=CC=C(C=C3)N4CCC(CC4)[C@H](C5=CC=CC=C5C6=CC=C(C=C6)Cl)O)S(=O)(=O)C(F)(F)F)CCO [AZD4320] (first compound max 10 µM, 7x7, partner max 1 µM)",-0.0253,-0.0774,-0.014,0.793,0.8,0.903,0.338,0.946,0.0805,–,–,–,–,–,–,–,–,–,–,–
"Cc1c2c(nn1C)CSCc1cc(n(C)n1)CSc1cc(c3ccccc3c1)OCCCc1c(C(=O)O)n(C)c3c-2c(Cl)ccc13 [AZD5991] + C1CN(CCC1(C(=O)N[C@@H](CCO)C2=CC=C(C=C2)Cl)N)C3=NC=NC4=C3C=CN4 [Capivasertib] (first compound max 1 µM, 7x7, partner max 3 µM)",0.0208,0.0582,-0.0105,0.767,0.415,0.0859,0.419,0.777,0.307,-0.0384,-0.0028,-0.0146,–,0.0261,1,1,0.179,0.36,0.488,0.31
"Cc1c2c(nn1C)CSCc1cc(n(C)n1)CSc1cc(c3ccccc3c1)OCCCc1c(C(=O)O)n(C)c3c-2c(Cl)ccc13 [AZD5991] + CN(C)CCCOc1ccc(-c2ccc3ncc4c(c3c2)n(C2CCOCC2)c(=O)n4C)cn1 [AZD0156] (first compound max 1 µM, 7x7, partner max 1 µM)",0.0058,-0.0352,-0.0097,0.606,0.317,0.209,0.217,0.617,0.479,–,-0.0069,0.0366,-0.0123,0.0076,1,1,0.233,0.465,0.209,0.174
